According to US9695149B2, “1,2,6-substituted benzimidazoles as flap modulators” (JANSSEN PHARMACEUTICA NV, priority 2013, dated 2017):
Structures can show the parent of a compound that is named as a salt.

Legend:
[1] = biological target: human FLAP (Homo sapiens (Human), UniProt P20292); experiment: FLAP binding assay (HTRF format); conditions: human FLAP-containing Sf-9 membranes, wild type; average of runs
Method: (§1) The ability of the compounds of the present invention to treat a FLAP-mediated disease and/or disorder, or associated symptoms or complications thereof, was determined using the following procedures. Binding assay data represent the average value obtained from two different assay plates, with samples run in duplicate on each plate. Human whole blood assay data represent a single replicate on an assay plate using whole blood from at least one healthy donor.
The assay below is used to test the modulatory activity of compounds against FLAP. Human and mouse FLAP-encoding DNA was amplified by polymerase chain reaction and cloned into pFastBac1 (Invitrogen) with a NH2-terminal 6-His tag for expression in Spodoptera frugiperda (Sf-9) cells. FLAP-containing membranes were prepared as was a FITC-labeled FLAP modulator (3-(3-(tert-butylthio)-1-(4-chlorobenzyl)-5-(quinolin-2-ylmethoxy)-1H-indol-2-yl)-2,2-dimethylpropanoic acid). The FLAP binding assay is performed in HTRF format (homogeneous time resolved fluorescence). […] The reaction is allowed to proceed for two hours after which the plate is read on an Envision plate reader in HTRF mode. Data are expressed as a HTRF ratio.
For human FLAP binding assays, data are analyzed with 3DX Explorer software. […] For analysis, data from multiple runs are averaged and each compound may be tested in 2 to 20 runs. Each run comprises two plates and each plate includes duplicates. Data from each plate is averaged and data are imported into 3DX. The data from multiple runs are aggregated as the average of duplicates of the calculated ratios in order to calculate Ki and IC50 values. Numbers in parentheses are the number of runs for the assay.

[2] = test system: leukotriene pathway in human whole blood; experiment: Human whole blood assay (LTB4, A23187-stimulated); format: cell-based; conditions: human whole blood diluted 1:1 in RPMI, calcium ionophore A23187 7 μg/mL, 30 min
Method: as §1
An in vitro cellular assay was performed using human whole blood collected in heparin-containing tubes, which was used to test the ability of compounds to modulate the leukotriene pathway in human whole blood. The blood was diluted 1:1 in RPMI medium, pre-incubated for 15 min at 37° Celsius with test compounds at various concentrations, and then stimulated with calcium ionophore, A23187 (7 μg/mL), for 30 min at 37° Celsius. The samples were then centrifuged and plasma was removed. The plasma was diluted in assay buffer and LTB4 levels were measured using a commercial kit (Enzo Life Sciences). The concentration of each compound that was required for half-maximal inhibition (modulation) of […] (IC50) was calculated by a 4-parameter equation using the program GraphPad Prism (GraphPad software). For analysis, data are imported into 3DX and aggregated as the average of duplicates of the calculated ratios in order to calculate Ki and IC50 values. Numbers in parentheses are the number of runs for the assay.

Chain of human FLAP (P20292 whole entry): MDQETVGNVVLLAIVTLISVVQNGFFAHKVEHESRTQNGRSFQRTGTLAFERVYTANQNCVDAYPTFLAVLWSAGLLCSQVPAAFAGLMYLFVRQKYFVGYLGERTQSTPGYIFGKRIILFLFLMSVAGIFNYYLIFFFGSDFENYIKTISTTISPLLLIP

Structure (SMILES) | Ki [1] [nM] | IC50 ([2]; Homo sapiens, 0.5 h) [nM] | IC50 [2] [nM]
CCC(CC)(Cc1nc2ccc(OCc3ccn(C)n3)cc2n1Cc1cc(Br)ccc1F)C(=O)O [Example 234, 2-({1-(5-Bromo-2-fluorobenzyl)-6-[(1-methyl-1H-pyrazol-3-yl)methoxy]-1H-benzimidazol-2-yl}methyl)-2-ethylbutanoic acid] | > 10000 |  | 
COc1ncc(-c2cccc(Cn3c(C4CCCC[C@H]4C(=O)O)nc4ccc(OCc5ccc(C)cn5)cc43)c2)cn1 (mixture of isomers) [Example 195, racemic cis-2-{1-[3-(2-Methoxypyrimidin-5-yl)benzyl]-6-[(5-methylpyridin-2-yl)methoxy]-1H-benzimidazol-2-yl}cyclohexanecarboxylic acid] | 19 | 1430 | 
Cc1ccc(COc2ccc3nc(CC(C)(C)C(=O)O)n(Cc4cccc(Br)c4)c3c2)nc1 [Example 232, 3-{1-(3-Bromobenzyl)-6-[(5-methylpyridin-2-yl)methoxy]-1H-benzimidazol-2-yl}-2,2-dimethylpropanoic acid as the trifluoroacetic acid salt] | ~750 |  | 
Cc1ccc(COc2ccc3nc(CC(C)(C)C(=O)O)n(Cc4cc(Br)ccc4F)c3c2)nc1 [Example 225, 3-{1-(5-Bromo-2-fluorobenzyl)-6-[(5-methylpyridin-2-yl)methoxy]-1H-benzimidazol-2-yl}-2,2-dimethylpropanoic acid] | ~870 |  | 
Cc1ccc(COc2ccc3nc(C4[C@H](C(=O)O)C4(C)C)n(Cc4cc(Br)ccc4F)c3c2)nc1 (mixture of isomers) [Example 227, racemic cis-3-{1-(5-Bromo-2-fluorobenzyl)-6-[(5-methylpyridin-2-yl)methoxy]-1H-benzimidazol-2-yl}-2,2-dimethylcyclopropanecarboxylic acid] |  | 4520 | 
CCC(CC)(Cc1nc2ccc(OCc3ccn(C)n3)cc2n1Cc1cccc(-c2cnc(OC)nc2)c1)C(=O)O [Example 213, 2-Ethyl-2-({1-[3-(2-methoxypyrimidin-5-yl)benzyl]-6-[(1-methyl-1H-pyrazol-3-yl)methoxy]-1H-benzimidazol-2-yl}methyl)butanoic acid] | ~940 |  | 
Cn1ccc(COc2ccc3nc(C4CCCC[C@H]4C(=O)O)n(Cc4cccc(C#N)c4)c3c2)n1 (mixture of isomers) [Example 199, racemic cis-2-{1-(3-Cyanobenzyl)-6-[(1-methyl-1H-pyrazol-3-yl)methoxy]-1H-benzimidazol-2-yl}cyclohexanecarboxylic acid] | ~2500 |  | 
CCC(CC)(Cc1nc2ccc(OCc3ccc(C)cn3)cc2n1Cc1cccc(-c2cnc(OC)nc2)c1)C(=O)O [Example 196, 2-Ethyl-2-({1-[3-(2-methoxypyrimidin-5-yl)benzyl]-6-[(5-methylpyridin-2-yl)methoxy]-1H-benzimidazol-2-yl}methyl)butanoic acid] | ~500 |  | 
CCC(CC)(Cc1nc2ccc(OCc3ccn(C)n3)cc2n1Cc1ccc(-c2cnc(OC)nc2)cc1F)C(=O)O [Example 214, 2-Ethyl-2-({1-[2-fluoro-4-(2-methoxypyrimidin-5-yl)benzyl]-6-[(1-methyl-1H-pyrazol-3-yl)methoxy]-1H-benzimidazol-2-yl}methyl)butanoic acid] | ~2500 |  | 
Cc1ccc(COc2ccc3nc(C4[C@H](C(=O)O)C4(C)C)n(Cc4ccccc4C)c3c2)nc1 (mixture of isomers) [Example 210, racemic cis-2,2-Dimethyl-3-{1-(2-methylbenzyl)-6-[(5-methylpyridin-2-yl)methoxy]-1H-benzimidazol-2-yl}cyclopropanecarboxylic acid] | ~1750 |  | 
Cc1ccc(COc2ccc3nc(C4[C@H](C(=O)O)C4(C)C)n(Cc4cccc(C)c4)c3c2)nc1 (mixture of isomers) [Example 202, racemic cis-2,2-Dimethyl-3-{1-(3-methylbenzyl)-6-[(5-methylpyridin-2-yl)methoxy]-1H-benzimidazol-2-yl}cyclopropanecarboxylic acid] | ~750 |  | 
CCC(CC)(Cc1nc2ccc(OCc3ccn(C)n3)cc2n1Cc1ccc(N2CCC(F)(F)C2)cc1)C(=O)O [Example 216, 2-({1-[4-(3,3-Difluoropyrrolidin-1-yl)benzyl]-6-[(1-methyl-1H-pyrazol-3-yl)methoxy]-1H-benzimidazol-2-yl}methyl)-2-ethylbutanoic acid] | ~180 |  | 

Now from value to molecule:

Ki [1] [nM] | IC50 ([2]; Homo sapiens, 0.5 h) [nM] | IC50 [2] [nM] | Structure (SMILES)
6.6 | 1810 |  | Cn1ccc(COc2ccc3nc(C4CCCC[C@H]4C(=O)O)n(Cc4cccc(Br)c4)c3c2)n1 (single isomer, unassigned) [Example 197, (1S*,2R*)-2-{1-(3-Bromobenzyl)-6-[(1-methyl-1H-pyrazol-3-yl)methoxy]-1H-benzimidazol-2-yl}cyclohexanecarboxylic acid]
9.5 | 370 |  | Cc1ccc(COc2ccc3nc(C4CCCC[C@H]4C(=O)O)n(Cc4cc(N5CCC(F)(F)CC5)ccc4F)c3c2)nc1 (mixture of isomers) [Example 208, racemic cis-2-{1-[5-(4,4-Difluoropiperidin-1-yl)-2-fluorobenzyl]-6-[(5-methylpyridin-2-yl)methoxy]-1H-benzimidazol-2-yl}cyclohexanecarboxylic acid]
0.95 | 110 |  | Cc1cnc(COc2ccc3nc(C4CCCC[C@H]4C(=O)O)n(Cc4ccc(N5CCC(C(F)(F)F)CC5)cc4F)c3c2)c(F)c1 (mixture of isomers) [Example 192, racemic cis-2-(6-[(3-Fluoro-5-methylpyridin-2-yl)methoxy]-1-{2-fluoro-4-[4-(trifluoromethyl)piperidin-1-yl]benzyl}-1H-benzimidazol-2-yl)cyclohexanecarboxylic acid]
 |  | 2170 | Cc1ccc(COc2ccc3nc(C4CCCC[C@H]4C(=O)O)n(Cc4cccc(N5CCCCC5)c4)c3c2)nc1 (mixture of isomers) [Example 224, racemic trans-2-{6-[(5-Methylpyridin-2-yl)methoxy]-1-(3-piperidin-1-ylbenzyl)-1H-benzimidazol-2-yl}cyclohexanecarboxylic acid]
120 | 5550 |  | Cc1cnc(COc2ccc3nc(CC(C)(C)C(=O)O)n(Cc4cc(Br)ccc4F)c3c2)c(F)c1 [Example 193, 3-{1-(5-Bromo-2-fluorobenzyl)-6-[(3-fluoro-5-methylpyridin-2-yl)methoxy]-1H-benzimidazol-2-yl}-2,2-dimethylpropanoic acid]
 |  | 320 | Cc1ccc(COc2ccc3nc(C4CCCC[C@H]4C(=O)O)n(Cc4cccc(N5CCCCC5)c4)c3c2)nc1 (mixture of isomers) [Example 223, racemic cis-2-{6-[(5-Methylpyridin-2-yl)methoxy]-1-(3-piperidin-1-ylbenzyl)-1H-benzimidazol-2-yl}cyclohexanecarboxylic acid]
 |  | 6640 | Cc1ccc(COc2ccc3nc([C@H]4CCCC[C@H]4C(=O)O)n(Cc4cc(Br)ccc4F)c3c2)nc1 (racemic) [Example 229, racemic-cis-2-{1-(5-Bromo-2-fluorobenzyl)-6-[(5-methylpyridin-2-yl)methoxy]-1H-benzimidazol-2-yl}cyclohexanecarboxylic acid]
> 10000 |  |  | Cn1ccc(COc2ccc3nc(C4CCCC[C@H]4C(=O)O)n(Cc4cccc(Br)c4)c3c2)n1 (single isomer, unassigned) [Example 198, (1R*,2S*)-2-{1-(3-Bromobenzyl)-6-[(1-methyl-1H-pyrazol-3-yl)methoxy]-1H-benzimidazol-2-yl}cyclohexanecarboxylic acid]
60 |  |  | Cc1ccc(COc2ccc3nc(C4CCCC[C@H]4C(=O)O)n(Cc4cccc(Br)c4)c3c2)nc1 (mixture of isomers) [Example 217, racemic trans-2-{1-(3-Bromobenzyl)-6-[(5-methylpyridin-2-yl)methoxy]-1H-benzimidazol-2-yl}cyclohexanecarboxylic acid]
 | 4170 |  | Cc1ccc(COc2ccc3nc(C4CCCC[C@H]4C(=O)O)n(Cc4cc(Br)ccc4F)c3c2)nc1 (mixture of isomers) [Example 218, racemic trans-2-{1-(5-Bromo-2-fluorobenzyl)-6-[(5-methylpyridin-2-yl)methoxy]-1H-benzimidazol-2-yl}cyclohexanecarboxylic acid]
 | 650 |  | Cc1ccc(COc2ccc3nc(C4CCCC[C@H]4C(=O)O)n(Cc4cccc(N5CCC(F)(F)C5)c4)c3c2)nc1 (mixture of isomers) [Example 220, racemic cis-2-{1-[3-(3,3-Difluoropyrrolidin-1-yl)benzyl]-6-[(5-methylpyridin-2-yl)methoxy]-1H-benzimidazol-2-yl}cyclohexanecarboxylic acid]
